Measured values as given in patent publication US5977373A, “Thiadiazolyl and oxadiazolyl phenyl oxazolidinone antibacterial agents” (Pharmacia & Upjohn Company, priority 1998, dated 1999).
Converted amounts (≈) assume the structure as drawn.

How the values were obtained:
Type in all cases: cell-based
[1] = tested on: S. Aureus UC ® 9213; assay: In vitro minimum inhibitory concentration (MIC) by agar dilution, gram-positive bacteria (Table 1); conditions: Staphylococcus aureus, UC9213
How it was run: (§1)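 MIC determined by agar dilution following NCCLS standard methods for aerobically growing bacteria (1983).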

[2] = tested on: S. pneumoniae UC ® 9912; assay: as above; conditions: Streptococcus pneumoniae, UC9912
How it was run: as §1

[3] = tested on: HI 30063; assay: MIC for a gram negative bacterial strain (Table 2); conditions: gram negative bacterial strain HI 30063

| Compound | MIC [1] [µg/mL] | MIC [2] [µg/mL] | MIC [3] [µg/mL] |
| --- | --- | --- | --- |
| CC(=O)NC[C@H]1CN(c2ccc(-c3nnc([S+](C)[O-])s3)c(F)c2)C(=O)O1 (stereo partly drawn) [Example 47, (5S)-N-[[3-[3-Fluoro-4-[5-(methylsulfinyl)-1,3,4-thiadiazol-2-yl]phenyl]-2-oxo-5-oxazolidinyl]methyl]acetamide] | 2 (≈ 5.02 µM) | 0.25 (≈ 0.627 µM) | 4 (≈ 10 µM) |
| CCc1nnc(-c2ccc(N3C[C@H](CNC(C)=O)OC3=O)cc2F)s1 [Example 4, (S)-N-[[3-[4-(5-Ethyl-1,3,4-thiadiazol-2-yl)-3-fluorophenyl]-2-oxo-5-oxazolidinyl]methyl]acetamide] | 1 (≈ 2.74 µM) | 0.25 (≈ 0.686 µM) | 4 (≈ 11 µM) |
| CC(=O)NC[C@H]1CN(c2ccc(-c3nnc(CO)s3)c(F)c2)C(=O)O1 [Example 11, (S)-N-[[3-[3-Fluoro-4-(5-hydroxymethyl-1,3,4-thiadiazol-2-yl)phenyl]-2-oxo-5-oxazolidinyl]methyl]acetamide] | 1 (≈ 2.73 µM) | < 0.125 | 4 (≈ 10.9 µM) |
| CC(=O)NC[C@H]1CN(c2ccc(-c3nnc(CF)s3)c(F)c2)C(=O)O1 [Example 8, (S)-N-[[3-[3-Fluoro-4-(5-fluoromethyl-1,3,4-thiadiazol-2-yl)phenyl]-2-oxo-5-oxazolidinyl]methyl]acetamide] | 1 (≈ 2.71 µM) | 0.25 (≈ 0.679 µM) | 4 (≈ 10.9 µM) |
| CC(=O)NC[C@H]1CN(c2ccc(-c3nnc(CC(N)=O)s3)c(F)c2)C(=O)O1 [Example 14, (S)-5-[4-[5-[(Acetylamino)methyl]-2-oxo-3-oxazolidinyl]-2-fluorophenyl]-1,3,4-thiadiazole-2-acetamide] | 4 (≈ 10.2 µM) | < 0.125 | 4 (≈ 10.2 µM) |
| CC(=O)NC[C@H]1CN(c2ccc(-c3nncs3)c(F)c2)C(=O)O1 [Example 9, (S)-N-[[3-[3-Fluoro-4-(1,3,4-thiadiazol-2-yl)phenyl]-2-oxo-5-oxazolidinyl]methyl]acetamide] | 1 (≈ 2.97 µM) | 0.25 (≈ 0.743 µM) | 4 (≈ 11.9 µM) |
| CSc1nnc(-c2ccc(N3C[C@H](CNC(C)=O)OC3=O)cc2F)s1 [Example 31, (S)-N-[[3-[3-Fluoro-4-[5-(methylthio)-1,3,4-thiadiazol-2-yl]phenyl]-2-oxo-5-oxazolidinyl]methyl]acetamide] | 0.5 (≈ 1.31 µM) | < 0.125 | 4 (≈ 10.5 µM) |
| CCC(=O)NC[C@H]1CN(c2ccc(-c3nncs3)c(F)c2)C(=O)O1 [Example 71, (S)-N-[[3-[3-Fluoro-4-(1,3,4-thiadiazol-2-yl)phenyl]-2-oxo-5-oxazolidinyl]methyl]propanamide] | 1 (≈ 2.85 µM) | 0.25 (≈ 0.714 µM) | 4 (≈ 11.4 µM) |
| CC(=O)NC[C@H]1CN(c2ccc(-c3nnc(CCCO)s3)c(F)c2)C(=O)O1 [Example 50, (S)-N-[[3-[3-Fluoro-4-[5-(3-hydroxypropyl)-1,3,4-thiadiazol-2-yl]phenyl]-2-oxo-5-oxazolidinyl]methyl]acetamide] | 2 (≈ 5.07 µM) | 0.25 (≈ 0.634 µM) | 4 (≈ 10.1 µM) |
| CC(=S)NC[C@H]1CN(c2ccc(-c3nnc(CN)s3)c(F)c2)C(=O)O1 [Example 77, N-[((5S)-3-{4-[5-(aminomethyl)-1,3,4-thiadiazol-2-yl]-3-fluorophenyl}-2-oxo-1,3-oxazolidin-5-yl)methyl]ethanethioamide] | < 0.5 | < 0.5 | < 0.5 |
| CC(=O)NC[C@H]1CN(c2ccc(-c3nnc(CC[N+](=O)[O-])s3)c(F)c2)C(=O)O1 [Example 53, (S)-N-[[3-[3-Fluoro-4-[5-(2-nitroethyl)-1,3,4-thiadiazol-2-yl]phenyl]-2-oxo-5-oxazolidinyl]methyl]acetamide] | 1 (≈ 2.44 µM) | 0.25 (≈ 0.611 µM) | 4 (≈ 9.77 µM) |
| CC(=O)NC[C@H]1CN(c2ccc(-c3nnc(COC(C)=O)s3)c(F)c2)C(=O)O1 [Example 10, (S)-N-[[3-[4-(5-Acetoxymethyl-1,3,4-thiadiazol-2-yl)-3-fluorophenyl]-2-oxo-5-oxazolidinyl]methyl]acetamide] | 1 (≈ 2.45 µM) | < 0.125 | 4 (≈ 9.79 µM) |
